We go through 7 compounds from publication PMC10673058, “In Silico and In Vitro Search for Dual Inhibitors of the Trypanosoma brucei and Leishmania major Pteridine Reductase 1 and Dihydrofolate Reductase” (Molecules, 2023).

For one test, the target named is T1, LmDHFR (Leishmania major, UniProt P07382).
T1 construct: The DNA fragment encoding LmDHFR was amplified by Phusion DNA polymerase; His6 (N); made in house; host or cells: E. coli BL21(DE3), vector pET 11D::LmDHFRHis
T1 sequence (P07382 26-229 limits assumed): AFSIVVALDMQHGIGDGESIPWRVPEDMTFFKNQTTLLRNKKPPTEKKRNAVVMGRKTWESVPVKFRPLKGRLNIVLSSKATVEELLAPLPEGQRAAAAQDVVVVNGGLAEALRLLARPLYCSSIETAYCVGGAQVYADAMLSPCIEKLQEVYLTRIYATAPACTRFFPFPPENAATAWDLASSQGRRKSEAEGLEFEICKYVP
The experiment in a line: Spectrophotometric enzyme inhibition assay, recombinant LmDHFR. It is filed as biochemical. How it is done: (§1) Based on the in vitro assays against TbPTR1 and LmPTR1 performed in the previous works of our group, as well as the in silico results obtained from the current study, a total of 47 natural products were tested against the target enzymes. […] The concentration-effect curves for the IC50 and EC50 values that were obtained in the present study are depicted in Supplementary Materials Figures S21–S42.
The TbDHFR concentration was measured to be 0.04 mg/mL and a specific activity of 38.1 U/mg was calculated. The concentration of LmDHFR was 0.05 mg/mL with a specific activity of 56.2 U/mg. All measurements were carried out using the saturating concentrations for dihydrofolate (50 μM) and NADPH (150 μM) in Buffer C (50 mM Tris/HCl (pH 7.6), 250 mM NaCl, 10 mM BME). The saturating conditions for TbDHFR and LmDHFR were determined using the diagrams depicted in Figures S17 and S19 in the Supplementary Materials.
(§2) The inhibitory effect of the selected natural products was investigated by testing the DMSO solution of each compound at a constant concentration of 100 μM for TbPTR1 and 50 μM for LmPTR1, TbDHFR, and LmDHFR, as well as hDHFR. The concentrations of the cofactor and substrates were set at the previously determined saturating conditions (Section 4.2.5). Each test compound was incubated for 20 min with the respective enzyme and NADPH to ensure a sufficient interaction time before the reaction was induced by the addition of the substrate. The enzymatic activity was determined in duplicates and correlated with a reference that contained just DMSO, instead of an inhibitor. The enzymatic activity of the reference was normalized to 100%.
(§3) The half-maximal inhibitory concentration (IC50) of the natural products was determined in triplicate, using at least five different inhibitor concentrations against a reference containing no inhibitor. The enzymatic activity was documented and analyzed and the IC50 value was determined by nonlinear regression using GraphPad Prism 9 (GraphPad Software Inc., La Jolla, CA, USA).

For test [1], the target named is T2, TbPTR1 (Trypanosoma brucei brucei, UniProt O76290).
T2 construct: His6 (N); made in house; host or cells: E. coli BL21 (DE3), vector pET 15b::TbPTR1His (strain from the group of M. Paola Costi, Modena)
T2 sequence (O76290 1-268): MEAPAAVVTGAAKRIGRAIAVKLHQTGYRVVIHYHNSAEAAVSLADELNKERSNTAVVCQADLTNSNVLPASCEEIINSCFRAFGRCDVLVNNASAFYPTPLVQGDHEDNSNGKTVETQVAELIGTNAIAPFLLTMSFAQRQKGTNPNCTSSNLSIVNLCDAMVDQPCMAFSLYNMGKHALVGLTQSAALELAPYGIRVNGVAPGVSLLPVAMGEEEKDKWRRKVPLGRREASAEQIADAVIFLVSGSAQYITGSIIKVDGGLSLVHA

The target in a further test is T3, hDHFR (Homo sapiens, UniProt P00374).
T3 construct: His; host or cells: E. coli BL21 (DE3), vector pET 15b::hDHFRHis
T3 sequence (P00374 1-187): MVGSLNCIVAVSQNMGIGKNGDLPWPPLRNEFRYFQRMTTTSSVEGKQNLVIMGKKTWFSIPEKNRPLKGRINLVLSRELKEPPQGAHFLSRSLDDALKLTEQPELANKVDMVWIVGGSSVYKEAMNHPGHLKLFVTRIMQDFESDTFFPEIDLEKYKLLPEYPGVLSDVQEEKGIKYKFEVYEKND
The experiment in a line: Spectrophotometric enzyme inhibition assay, recombinant hDHFR (selectivity). The following applies: for inhibition at 50 µM: set compound concentration of 50 μM, read-out: relative inhibition of hDHFR; for EC50: read-out: EC50 hDHFR (footnote a). The test is classed as biochemical. As for the experimental part: For 15 compounds, there was enough substance available to be tested in selectivity studies against hDHFR.
The used hDHFR concentration was 0.64 mg/mL, with a specific activity of 0.62 U/mg. All measurements were carried out using the saturating concentrations for dihydrofolate (100 μM) and NADPH (50 μM) in Buffer C (50 mM Tris/HCl (pH 7.6), 250 mM NaCl, 10 mM BME). The saturating conditions for hDHFR were determined using the diagrams depicted in Figure S20 in the Supplementary Materials.
as §2, §3

Test [2] addresses T4, LmPTR1 (Leishmania major, UniProt Q01782).
T4 construct: His6 (N); made in house; host or cells: E. coli BL21 (DE3), vector pET 15b::LmPTR1His (strain from the group of M. Paola Costi, Modena)
T4 sequence (Q01782 1-288): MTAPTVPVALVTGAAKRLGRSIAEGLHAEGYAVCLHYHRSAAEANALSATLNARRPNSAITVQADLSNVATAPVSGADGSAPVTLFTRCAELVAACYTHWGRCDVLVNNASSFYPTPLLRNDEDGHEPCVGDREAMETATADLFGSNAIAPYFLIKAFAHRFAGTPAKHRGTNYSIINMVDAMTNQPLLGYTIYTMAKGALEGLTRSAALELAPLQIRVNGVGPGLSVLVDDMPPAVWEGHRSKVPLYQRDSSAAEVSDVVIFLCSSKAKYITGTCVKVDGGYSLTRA
The arrangement: method as in PMID 29211037.

The target of a further test is T5, TbDHFR (Trypanosoma brucei brucei, UniProt Q27783).
T5 construct: pET 11D::TbDHFRHis vector design for the recombinant overexpression of TbDHFR in E. coli; His; made in house; host or cells: E. coli BL21(DE3), vector pET 11D::TbDHFRHis
T5 sequence (Q27783 28-238 limits assumed): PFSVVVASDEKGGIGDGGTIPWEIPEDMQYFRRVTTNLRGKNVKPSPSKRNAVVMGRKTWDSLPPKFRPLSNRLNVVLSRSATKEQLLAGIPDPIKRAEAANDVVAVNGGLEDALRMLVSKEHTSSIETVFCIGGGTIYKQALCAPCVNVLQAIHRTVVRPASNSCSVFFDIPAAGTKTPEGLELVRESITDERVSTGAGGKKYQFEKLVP
Nature of the test: Spectrophotometric enzyme inhibition assay, recombinant TbDHFR. The test is classed as biochemical. The following applies: read-out: IC50 TbDHFR. How it is done: Based on the in vitro assays against TbPTR1 and LmPTR1 performed in the previous works of our group, as well as the in silico results obtained from the current study, a total of 47 natural products were tested against the target enzymes.
The saturating conditions for TbDHFR and LmDHFR were determined using the diagrams depicted in Figures S17 and S19 in the Supplementary Materials.
as §2, §3

Test [3] deals with T4, LmPTR1. Nature of the test: Spectrophotometric enzyme inhibition assay, recombinant LmPTR1. The test is classed as biochemical. How it is done: as §1
(§4) The used TbPTR1 concentration was 3.23 mg/mL, with a specific activity of 0.03 U/mg. The measurements were carried out using the enzyme’s individual saturating concentrations for folic acid (8 μM) and NADPH (150 μM) in Buffer A (50 mM Tris/HCl (pH 7.6), 250 mM NaCl). For LmPTR1, the protein concentration was 5.02 mg/mL and the specific activity was calculated to be 0.29 U/mg. Buffer B (50 mM NaH2PO4 (pH 6.0), 100 mM NaCl) was used for all LmPTR1 measurements and the saturating concentrations amounted to 50 μM of folic acid and 200 μM of NADPH. The saturating conditions of the PTR1 enzymes were determined using the diagrams depicted in Figures S16 and S18 in the Supplementary Materials.
as §2, §3

Test [4] deals with T2, TbPTR1. The experiment in a line: Dilution assay for reversible/irreversible inhibition of TbPTR1. The test is classed as biochemical. The following applies: inhibitor concentration near IC50. The text has this: The catalytic center of TbPTR1 contains a cysteine residue (TbCys168) in close proximity to the substrate/inhibitor binding site. In our previous publication, we mentioned the possibility that Sesquiterpene Lactones 1 and 2 might interact as Michael acceptors with TbCys168 by covalent bond formation with its thiol group. Therefore, we have now subjected a selection of natural product inhibitors containing Michael acceptors (1, 2, 5, 17) to initial testing for irreversible inhibition, according to the dilution method described by Bisswanger (see Section 4.2.9).
In this method, the enzyme activity of the respective enzyme-inhibitor mixture is measured before and after a defined dilution (in this study, 1:2). In the absence of an inhibitor, dilution decreases the enzyme activity proportionally to the dilution factor. […] A reversible inhibitor, on the other hand, will dissociate upon dilution, resulting in a weaker decrease in activity than what corresponds to the dilution effect. In the presence of Inhibitors 1 and 2, the decrease in TbPTR1 activity upon the 1:2 dilution was almost proportional to the dilution factor, i.e., only 9.5% and 6.8% activity, respectively, were recovered compared to the reference. This would indeed support an irreversible mechanism of inhibition. […] However, further investigations on these compounds’ mechanisms of inhibition are under way.
To assign an either reversible or irreversible inhibition mechanism to selected compounds, the enzymatic activity of an enzyme-inhibitor mixture was determined before and after a defined dilution, using the reaction conditions described in Section 4.2.5 [16].
Two equivalent solutions with the respective enzyme and inhibitor combination were prepared, one of them being diluted with buffer in a 1:2 ratio shortly before the reaction was started by adding the substrate. The respective inhibitor concentration was set near the IC50 value. The substrate and cofactor concentrations were kept constant in both reaction mixtures. All measurements were carried out in duplicates against a reference containing DMSO instead of the inhibitor. […] If a reversible inhibitor was present, a higher degree of activity recovery (>>10%) could be observed than what corresponds to the dilution factor due to the partial dissociation of the inhibitor from the enzyme upon dilution. The percentual changes in the enzymatic activity of the undiluted and diluted test solution were compared and evaluated to decide the mechanism of inhibition.

Test [5] deals with T2, TbPTR1. Nature of the test: Spectrophotometric enzyme inhibition assay, recombinant TbPTR1. The test is classed as biochemical. How it is done: as §1, §4, §2, §3
In the next test the test system is L. major. The following applies: read-out: EC50 against L. major; cited from earlier work.
In a further test the test system is T. brucei. The following applies: read-out: EC50 in vitro against T. brucei; cited from earlier work.
Setting [6] is: read-out: IC50 LmPTR1; from previous study; cited from earlier work.

Like-named read-outs stand apart in the source and are kept apart here.

The term IC50 denotes the concentration that gives 50% inhibition. Broadly, the inhibition is the share of the control response that was lost under treatment. As for `O=C(OC1Cc2c(O)cc(O)cc2OC1c1ccc(O)c(O)c1)c1cc(O)c(O)c(O)c1` (single isomer, unassigned; (-)) [Compound 3, (−)-catchin-3-gallate], the IC50 on LmDHFR was 0.6 µM; on TbPTR1 [1] (read-out: IC50 TbPTR1; from previous study; cited from earlier work) it was greater than 100 µM; at hDHFR, 4.2 µM; at LmPTR1 [2] (setting [6]), 75.3 µM. Further, on hDHFR, the inhibition at 50 µM is greater than 50%.
As usually defined, the EC50 is the concentration needed to bring the measured effect to its halfway point. `C=C1C(=O)O[C@@H]2/C=C(\CO)CC/C=C(\C)C[C@H](OC(=O)C(=C)[C@H](O)CO)[C@@H]12` [Compound 1, cnicin]: the IC50 on TbDHFR, at LmPTR1 [3] (read-out: IC50 LmPTR1) and at hDHFR was greater than 50 µM throughout. Further, on LmPTR1 [3], the “inhibitory effect against LmPTR1” value is given as “No relevant inhibitory effect”. The “TbPTR1 activity recovered upon 1:2 dilution compared to the reference” value at TbPTR1 [4] is on record as 9.5%. Besides, the EC50 at TbPTR1 [1] (EC50 value; from previous study; read-out: EC50 TbPTR1 (footnote a); cited from earlier work) is 12.2 µM. Also, the “inhibition of hDHFR” value on hDHFR is recorded as “no relevant inhibition”.
As for `C=C(CO)C(=O)O[C@H]1CC(=C)[C@@H]2C[C@H](O)C(=C)[C@@H]2[C@H]2OC(=O)C(=C)[C@@H]21` [Compound 2, cynaropicrin], the IC50 on TbDHFR (recombinant enzyme, >50 = <50% inhibition at 50 μM) amounted to 7.12 µM. At LmPTR1 [3], the IC50 was greater than 50 µM and the “inhibitory effect against LmPTR1” value was “No relevant inhibitory effect”. The “TbPTR1 activity recovered upon 1:2 dilution compared to the reference” value on TbPTR1 [4] is on record as 6.8%. At hDHFR, the IC50 is greater than 50 µM and the “inhibition of hDHFR” value is “no relevant inhibition”.
Regarding `COc1cc([C@@H]2Oc3cc(-c4oc5cc(O)cc(O)c5c(=O)c4O)ccc3O[C@H]2CO)ccc1O` [Compound 4, 2,3-dehydrosilybin B], the IC50 at LmDHFR was 2.6 µM; on TbPTR1 [5], greater than 100 µM; on LmPTR1 [2] (setting [6]), 42.9 µM. Further, the EC50 at hDHFR is 3.8 µM. Also, the inhibition at 50 µM at hDHFR is greater than 50%.
With `COc1cc(/C=C/C(=O)CC(=O)/C=C/c2ccc(O)c(OC)c2)ccc1O` [Compound 5, curcumin], the figures for the concentration for a half-maximal effect (EC50) in the test with L. major and in the test with T. brucei were 33 µM and 2.5 µM, respectively. Besides, the half-inhibitory concentration (IC50) at LmPTR1 [3] (read-out: IC50 LmPTR1) was greater than 50 µM; at hDHFR, 33.9 µM; on TbPTR1 [5] (read-out: IC50 TbPTR1), 18.5 µM. Moreover, the “TbPTR1 activity recovered upon 1:2 dilution compared to the reference” value on TbPTR1 [4] is listed as 16.6%. For the same compound, the inhibition at 50 µM at hDHFR is greater than 50%.
For `CC(C)=CCc1c(O)cc2oc3cc(O)c(O)c(CCC(C)(C)O)c3c(=O)c2c1O` [Compound 6, garcinone c], the IC50 at LmDHFR (read-out: IC50 LmDHFR) stood at 3 µM. Besides, the IC50 on TbPTR1 [1] (from previous study; read-out: IC50 TbPTR1; cited from earlier work) was greater than 100 µM. At hDHFR, the IC50 came to 1.7 µM, the EC50 was 1.7 µM and the inhibition at 50 µM is greater than 50%.
On to `O=C(/C=C/c1ccc(O[C@@H]2O[C@H](CO)[C@@H](O)[C@H](O)[C@H]2O)cc1)c1ccc(O)cc1O` [Compound 7, isoliquiritin], for which the IC50 was 46.2 µM on LmDHFR, greater than 50 µM on hDHFR, greater than 100 µM on TbPTR1 [5] and 84.5 µM on LmPTR1 [2] (from previous study; read-out: IC50 LmPTR1; cited from earlier work).
